{
  "source": "patent US20230372481A1",
  "about": "(priority 2020, published 2023)",
  "key": {"[1]": {"test_system": "CD45RA− memory T cells", "type": "cell-based, human", "details": "for IFNγ production WITH IL15 X3, CD45RA− / IFNγ production WITH IL15 X3, CD45RA− CD3+ / IFNγ production WITH IL15 X3, CD45RA− CD3+ CD4+ / IFNγ production WITH IL15 X3, CD45RA− CD3+ CD8+ / FOLD INCREASE OF IFNγ PRODUCTION, CD45RA− / FOLD INCREASE OF IFNγ PRODUCTION, CD45RA− CD3+ / FOLD INCREASE OF IFNγ PRODUCTION, CD45RA− CD3+ CD4+ / FOLD INCREASE OF IFNγ PRODUCTION, CD45RA− CD3+ CD8+: three peptivators"}, "[2]": {"test_system": "CD45RA− memory T cells", "experiment": "Phenotypic characterization of CD45RA− memory T cells in the presence of IL-15 (Table 11)", "type": "cell-based, human", "details": "for Fold change CD127lowCD25+ (Treg): CD45RA−CD4+ subset"}, "[3]": {"details": "DAY 3 (72 hours) with IL-15 50 ng/ml"}, "[4]": {"details": "DAY 3, with minus without IL-15, three peptivators"}, "[5]": {"details": "O/N, with minus without IL-15, three peptivators"}, "[6]": {"details": "CD3+ subset, IL-15 for 72 hours"}, "[7]": {"details": "CD4+ subset, IL-15 for 72 hours"}, "[8]": {"details": "CD8+ subset, IL-15 for 72 hours"}, "[9]": {"details": "IL-15 72 hours vs control with no cytokine"}},
  "note": "Like-named read-outs stand apart in the source and are kept apart here.",
  "data": [
    {"substance": "IL15: cytokine fundamental for memory T cells that induces the activation, the proliferation and the survival of T cells", "values": [
      {"measurement": "IFNγ production WITH IL15 X3, CD45RA−", "setting": "[1]; [3]", "result": 1.9},
      {"measurement": "IFNγ production WITH IL15 X3, CD45RA− CD3+", "setting": "[1]; [3]", "result": 1.7},
      {"measurement": "IFNγ production WITH IL15 X3, CD45RA− CD3+ CD4+", "setting": "[1]; [3]", "result": 1.5},
      {"measurement": "IFNγ production WITH IL15 X3, CD45RA− CD3+ CD8+", "setting": "[1]; [3]", "result": 2.7},
      {"measurement": "IFNγ production W-WO, CD45RA−", "setting": "[1]; [4]", "result": 1.6},
      {"measurement": "IFNγ production W-WO, CD45RA− CD3+", "setting": "[1]; [4]", "result": 1.4},
      {"measurement": "IFNγ production W-WO, CD45RA− CD3+ CD4+", "setting": "[1]; [4]", "result": 1.1},
      {"measurement": "IFNγ production W-WO, CD45RA− CD3+ CD8+", "setting": "[1]; [4]", "result": 2.4},
      {"measurement": "FOLD INCREASE OF IFNγ PRODUCTION, CD45RA−", "setting": "[1]; DAY 3 with IL-15 vs without", "result": 5.3, "unit": "fold"},
      {"measurement": "FOLD INCREASE OF IFNγ PRODUCTION, CD45RA− CD3+", "setting": "[1]; DAY 3 with IL-15 vs without", "result": 5.8, "unit": "fold"},
      {"measurement": "FOLD INCREASE OF IFNγ PRODUCTION, CD45RA− CD3+ CD4+", "setting": "[1]; DAY 3 with IL-15 vs without", "result": 3.8, "unit": "fold"},
      {"measurement": "FOLD INCREASE OF IFNγ PRODUCTION, CD45RA− CD3+ CD8+", "setting": "[1]; DAY 3 with IL-15 vs without", "result": 11.6, "unit": "fold"},
      {"measurement": "IFNγ production WITH IL15 X3, CD45RA−", "setting": "[1]; O/N with IL-15 50 ng/ml", "result": 3.8},
      {"measurement": "IFNγ production WITH IL15 X3, CD45RA− CD3+", "setting": "[1]; O/N with IL-15 50 ng/ml", "result": 3.8},
      {"measurement": "IFNγ production WITH IL15 X3, CD45RA− CD3+ CD4+", "setting": "[1]; O/N with IL-15 50 ng/ml", "result": 3.8},
      {"measurement": "IFNγ production WITH IL15 X3, CD45RA− CD3+ CD8+", "setting": "[1]; O/N with IL-15 50 ng/ml", "result": 4.6},
      {"measurement": "FOLD INCREASE OF IFNγ PRODUCTION, CD45RA−", "setting": "[1]; O/N with IL-15 vs without", "result": 19.2, "unit": "fold"},
      {"measurement": "FOLD INCREASE OF IFNγ PRODUCTION, CD45RA− CD3+", "setting": "[1]; O/N with IL-15 vs without", "result": 13.6, "unit": "fold"},
      {"measurement": "FOLD INCREASE OF IFNγ PRODUCTION, CD45RA− CD3+ CD4+", "setting": "[1]; O/N with IL-15 vs without", "result": 12.5, "unit": "fold"},
      {"measurement": "FOLD INCREASE OF IFNγ PRODUCTION, CD45RA− CD3+ CD8+", "setting": "[1]; O/N with IL-15 vs without", "result": 14.8, "unit": "fold"},
      {"measurement": "IFNγ production W-WO, CD45RA−", "setting": "[1]; [5]", "result": 3.6},
      {"measurement": "IFNγ production W-WO, CD45RA− CD3+", "setting": "[1]; [5]", "result": 3.5},
      {"measurement": "IFNγ production W-WO, CD45RA− CD3+ CD4+", "setting": "[1]; [5]", "result": 3.5},
      {"measurement": "IFNγ production W-WO, CD45RA− CD3+ CD8+", "setting": "[1]; [5]", "result": 4.3},
      {"measurement": "% Memory T cells, % CD45RA−", "setting": "[1]; WITH IL15 PEPX3 72 hours", "result": 84, "unit": "%"},
      {"measurement": "% Memory T cells, % CD45RA−CD3+", "setting": "[1]; WITH IL15 PEPX3 72 hours", "result": 95.1, "unit": "%"},
      {"measurement": "% Memory T cells, % CD45RA−CD3+ CD4+", "setting": "[1]; WITH IL15 PEPX3 72 hours", "result": 91.2, "unit": "%"},
      {"measurement": "% Memory T cells, % CD45RA−CD3+ CD8+", "setting": "[1]; WITH IL15 PEPX3 72 hours", "result": 3.45, "unit": "%"},
      {"measurement": "% Memory T cells, % CD45RA−", "setting": "[1]; WITH IL15 PEPX3 o/n", "result": 97.7, "unit": "%"},
      {"measurement": "% Memory T cells, % CD45RA−CD3+", "setting": "[1]; WITH IL15 PEPX3 o/n", "result": 94.9, "unit": "%"},
      {"measurement": "% Memory T cells, % CD45RA−CD3+ CD4+", "setting": "[1]; WITH IL15 PEPX3 o/n", "result": 91, "unit": "%"},
      {"measurement": "% Memory T cells, % CD45RA−CD3+ CD8+", "setting": "[1]; WITH IL15 PEPX3 o/n", "result": 6.23, "unit": "%"},
      {"measurement": "Fold change CD25+ (T cell activation marker)", "setting": "[2]; [6]", "result": 13.16},
      {"measurement": "Fold change CD69+ (T cell activation marker)", "setting": "[2]; [6]", "result": 26},
      {"measurement": "Fold change HLA-DR+ high (T cell activation marker)", "setting": "[2]; [6]", "result": 1.21},
      {"measurement": "Fold change NKG2A+ (T cell exhaustion marker)", "setting": "[2]; [6]", "result": 0.77},
      {"measurement": "Fold change PD1+ high (T cell exhaustion marker)", "setting": "[2]; [6]", "result": 3.43},
      {"measurement": "Fold change CD25+ (T cell activation marker)", "setting": "[2]; CD3+ subset, IL-15 o/n", "result": 2.11},
      {"measurement": "Fold change CD69+ (T cell activation marker)", "setting": "[2]; CD3+ subset, IL-15 o/n", "result": 3.82},
      {"measurement": "Fold change HLA-DR+ high (T cell activation marker)", "setting": "[2]; CD3+ subset, IL-15 o/n", "result": 1.11},
      {"measurement": "Fold change NKG2A+ (T cell exhaustion marker)", "setting": "[2]; CD3+ subset, IL-15 o/n", "result": 0.61},
      {"measurement": "Fold change PD1+ high (T cell exhaustion marker)", "setting": "[2]; CD3+ subset, IL-15 o/n", "result": 1.43},
      {"measurement": "Fold change CD25+ (T cell activation marker)", "setting": "[2]; [7]", "result": 9.88},
      {"measurement": "Fold change CD69+ (T cell activation marker)", "setting": "[2]; [7]", "result": 27.82},
      {"measurement": "Fold change HLA-DR+ high (T cell activation marker)", "setting": "[2]; [7]", "result": 1.22},
      {"measurement": "Fold change NKG2A+ (T cell exhaustion marker)", "setting": "[2]; [7]", "result": 2.67},
      {"measurement": "Fold change PD1+ high (T cell exhaustion marker)", "setting": "[2]; [7]", "result": 3.41},
      {"measurement": "Fold change CD25+ (T cell activation marker)", "setting": "[2]; CD4+ subset, IL-15 o/n", "result": 2.12},
      {"measurement": "Fold change CD69+ (T cell activation marker)", "setting": "[2]; CD4+ subset, IL-15 o/n", "result": 4.48},
      {"measurement": "Fold change HLA-DR+ high (T cell activation marker)", "setting": "[2]; CD4+ subset, IL-15 o/n", "result": 0.97},
      {"measurement": "Fold change NKG2A+ (T cell exhaustion marker)", "setting": "[2]; CD4+ subset, IL-15 o/n", "result": 0.39},
      {"measurement": "Fold change PD1+ high (T cell exhaustion marker)", "setting": "[2]; CD4+ subset, IL-15 o/n", "result": 1.35},
      {"measurement": "Fold change CD25+ (T cell activation marker)", "setting": "[2]; [8]", "result": 105},
      {"measurement": "Fold change CD69+ (T cell activation marker)", "setting": "[2]; [8]", "result": 6.48},
      {"measurement": "Fold change HLA-DR+ high (T cell activation marker)", "setting": "[2]; [8]", "result": 1.61},
      {"measurement": "Fold change NKG2A+ (T cell exhaustion marker)", "setting": "[2]; [8]", "result": 1.23},
      {"measurement": "Fold change PD1+ high (T cell exhaustion marker)", "setting": "[2]; [8]", "result": 2.97},
      {"measurement": "Fold change CD25+ (T cell activation marker)", "setting": "[2]; CD8+ subset, IL-15 o/n", "result": 14.27},
      {"measurement": "Fold change CD69+ (T cell activation marker)", "setting": "[2]; CD8+ subset, IL-15 o/n", "result": 2.10},
      {"measurement": "Fold change HLA-DR+ high (T cell activation marker)", "setting": "[2]; CD8+ subset, IL-15 o/n", "result": 1.32},
      {"measurement": "Fold change NKG2A+ (T cell exhaustion marker)", "setting": "[2]; CD8+ subset, IL-15 o/n", "result": 0.73},
      {"measurement": "Fold change PD1+ high (T cell exhaustion marker)", "setting": "[2]; CD8+ subset, IL-15 o/n", "result": 1.51},
      {"measurement": "Fold change CD127lowCD25+ (Treg)", "setting": "[2]; IL-15 for 72 hours vs day 0 WO IL15", "result": 7.88},
      {"measurement": "Fold change CD127lowCD25+ (Treg)", "setting": "[2]; IL-15 o/n vs day 0 WO IL15", "result": 1.85},
      {"measurement": "Fold time change of exhaustion marker NKG2A, CD45RA−CD3+ cells", "setting": "[2]; IL-15 72 hours", "result": 0.77, "unit": "fold"},
      {"measurement": "Fold time change of exhaustion marker PD-1, CD45RA−CD3+ cells", "setting": "[2]; IL-15 72 hours", "result": 3.43, "unit": "fold"},
      {"measurement": "Fold increase of activation marker CD25, CD45RA− CD3+ cells", "setting": "[2]; [9]", "result": 13.26, "unit": "fold"},
      {"measurement": "Fold increase of activation marker CD69, CD45RA− CD3+ cells", "setting": "[2]; [9]", "result": 26, "unit": "fold"}
    ]}
  ]
}
